Results as given in ChEMBL document CHEMBL1201862, “PubChem BioAssay data set” (2004).
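48-hour exposure; five concentrations; linearly interpolated endpoints. Here, GI50 denotes the concentration required for 50% inhibition of growth.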 Active and inactive are the calls of the source. No stated cut-off is given here; in the data, active = GI50 up to about 1.1 µM and inactive = higher.

Assays:
Test in all cases: NCI tumour cell line growth inhibition, 48 h
HOP-92 = test system: HOP-92
UACC-62 = test system: UACC-62
HT-29 = test system: HT-29
SNB-19 = test system: SNB-19
U-251 = test system: U-251
SK-MEL-2 = test system: SK-MEL-2
SW-620 = test system: SW-620
SNB-75 = test system: SNB-75
MDA-MB-231 = test system: MDA-MB-231
SF-539 = test system: SF-539
SK-OV-3 = test system: SK-OV-3
NCI-H460 = test system: NCI-H460
UACC-257 = test system: UACC-257
T47D = test system: T47D
TK-10 = test system: TK-10
A498 = test system: A498
OVCAR-5 = test system: OVCAR-5
NCI-H226 = test system: NCI-H226
MCF7 = test system: MCF7
HOP-62 = test system: HOP-62
HCT-15 = test system: HCT-15
K562 = test system: K562
RXF 393 = test system: RXF 393
MDA-N = test system: MDA-N
OVCAR-8 = test system: OVCAR-8
EKVX = test system: EKVX
SF-268 = test system: SF-268
SK-MEL-5 = test system: SK-MEL-5
LOX IMVI = test system: LOX IMVI
Malme-3M = test system: Malme-3M
CCRF-CEM = test system: CCRF-CEM
PC-3 = test system: PC-3
HCT-116 = test system: HCT-116
CAKI-1 = test system: CAKI-1
A549 = test system: A549
Hs-578T = test system: Hs-578T
786-0 = test system: 786-0
NCI-H522 = test system: NCI-H522
HCC 2998 = test system: HCC 2998
NCI-H23 = test system: NCI-H23
UO-31 = test system: UO-31
RPMI-8226 = test system: RPMI-8226
SF-295 = test system: SF-295
DU-145 = test system: DU-145
MDA-MB-435 = test system: MDA-MB-435
OVCAR-4 = test system: OVCAR-4
BT-549 = test system: BT-549
HL-60 = test system: HL-60
COLO 205 = test system: COLO 205
OVCAR-3 = test system: OVCAR-3
NCI/ADR-RES = test system: NCI/ADR-RES
ACHN = test system: ACHN
SN12C = test system: SN12C
SK-MEL-28 = test system: SK-MEL-28
SR = test system: SR
M14 = test system: M14
IGROV-1 = test system: IGROV-1
MOLT-4 = test system: MOLT-4
KM12 = test system: KM12

CCCN(CCCCN1C(=O)c2ccccc2C1=O)CC1COc2ccccc2O1 (stereo not given)
GI50 (HOP-92): 29.4 µM (inactive) | GI50 (UACC-62): > 100 µM (inactive) | GI50 (HT-29): 33.6 µM (inactive) | GI50 (SNB-19): > 100 µM (inactive) | GI50 (U-251): 74 µM (inactive) | GI50 (SK-MEL-2): > 100 µM (inactive) | GI50 (SW-620): > 100 µM (inactive) | GI50 (SNB-75): > 100 µM (inactive) | GI50 (MDA-MB-231): > 100 µM (inactive) | GI50 (SF-539): 83.2 µM (inactive) | GI50 (SK-OV-3): > 100 µM (inactive) | GI50 (NCI-H460): 53.5 µM (inactive) | GI50 (UACC-257): 65.9 µM (inactive) | GI50 (T47D): 42.9 µM (inactive) | GI50 (TK-10): > 100 µM (inactive) | GI50 (A498): > 100 µM (inactive) | GI50 (OVCAR-5): > 100 µM (inactive) | GI50 (NCI-H226): 53 µM (inactive) | GI50 (MCF7): 53.1 µM (inactive) | GI50 (HOP-62): > 100 µM (inactive) | GI50 (HCT-15): 52.2 µM | GI50 (K562): 42.1 µM (inactive) | GI50 (RXF 393): 94.4 µM (inactive) | GI50 (MDA-N): > 100 µM (inactive) | GI50 (OVCAR-8): > 100 µM (inactive) | GI50 (EKVX): > 100 µM (inactive) | GI50 (SF-268): > 100 µM (inactive) | GI50 (SK-MEL-5): 28.6 µM (inactive) | GI50 (LOX IMVI): > 100 µM (inactive) | GI50 (Malme-3M): > 100 µM (inactive) | GI50 (CCRF-CEM): 25.8 µM (inactive) | GI50 (PC-3): 51.9 µM (inactive) | GI50 (HCT-116): 59.4 µM (inactive) | GI50 (CAKI-1): > 100 µM (inactive) | GI50 (A549): > 100 µM (inactive) | GI50 (Hs-578T): > 100 µM (inactive) | GI50 (786-0): > 100 µM (inactive) | GI50 (NCI-H522): > 100 µM (inactive) | GI50 (HCC 2998): 83.2 µM (inactive) | GI50 (NCI-H23): 55.3 µM (inactive) | GI50 (UO-31): 51.9 µM (inactive) | GI50 (RPMI-8226): 26.4 µM (inactive) | GI50 (SF-295): > 100 µM (inactive) | GI50 (DU-145): > 100 µM (inactive) | GI50 (MDA-MB-435): > 100 µM (inactive) | GI50 (OVCAR-4): > 100 µM (inactive) | GI50 (BT-549): > 100 µM (inactive) | GI50 (HL-60): 14.1 µM (inactive) | GI50 (COLO 205): 50.1 µM (inactive) | GI50 (OVCAR-3): > 100 µM (inactive) | GI50 (NCI/ADR-RES): 61.1 µM (inactive) | GI50 (ACHN): > 100 µM (inactive) | GI50 (SN12C): > 100 µM (inactive) | GI50 (SK-MEL-28): 88.5 µM (inactive) | GI50 (SR): 25.1 µM (inactive) | GI50 (M14): > 100 µM (inactive) | GI50 (IGROV-1): > 100 µM (inactive) | GI50 (MOLT-4): 23.3 µM (inactive) | GI50 (KM12): > 100 µM (inactive)

N#CC1(C#N)[C@@H]2CCC=C(Sc3ccccc3)[C@@H]21
GI50 (HOP-92): 14.9 µM (inactive) | GI50 (UACC-62): 18.4 µM (inactive) | GI50 (HT-29): 18.6 µM (inactive) | GI50 (SNB-19): 23.9 µM (inactive) | GI50 (U-251): 16.1 µM (inactive) | GI50 (SK-MEL-2): 14.6 µM (inactive) | GI50 (SW-620): 11.9 µM (inactive) | GI50 (SNB-75): 20.9 µM (inactive) | GI50 (MDA-MB-231): 22.2 µM (inactive) | GI50 (SF-539): 15.5 µM (inactive) | GI50 (SK-OV-3): 19.5 µM (inactive) | GI50 (NCI-H460): 19.5 µM (inactive) | GI50 (UACC-257): 17.5 µM (inactive) | GI50 (T47D): 22.1 µM (inactive) | GI50 (TK-10): 14.6 µM (inactive) | GI50 (A498): 31.7 µM (inactive) | GI50 (OVCAR-5): 17.8 µM (inactive) | GI50 (NCI-H226): 13.9 µM (inactive) | GI50 (MCF7): 10.4 µM (inactive) | GI50 (HCT-15): 17.7 µM | GI50 (K562): 6.71 µM (inactive) | GI50 (RXF 393): 13 µM (inactive) | GI50 (MDA-N): 13.9 µM (inactive) | GI50 (OVCAR-8): 16 µM (inactive) | GI50 (EKVX): 18.5 µM (inactive) | GI50 (SF-268): 20.1 µM (inactive) | GI50 (SK-MEL-5): 13.9 µM (inactive) | GI50 (LOX IMVI): 13.9 µM (inactive) | GI50 (Malme-3M): 16.9 µM (inactive) | GI50 (CCRF-CEM): 5.71 µM (inactive) | GI50 (PC-3): 14.3 µM (inactive) | GI50 (HCT-116): 15.7 µM (inactive) | GI50 (CAKI-1): 13.6 µM (inactive) | GI50 (A549): 23.4 µM (inactive) | GI50 (Hs-578T): > 100 µM (inactive) | GI50 (786-0): 16.1 µM (inactive) | GI50 (NCI-H522): 10.8 µM (inactive) | GI50 (HCC 2998): 16.7 µM (inactive) | GI50 (RPMI-8226): 12.9 µM (inactive) | GI50 (SF-295): 16.5 µM (inactive) | GI50 (DU-145): 16 µM (inactive) | GI50 (MDA-MB-435): 12.9 µM (inactive) | GI50 (OVCAR-4): 14.3 µM (inactive) | GI50 (BT-549): 23 µM (inactive) | GI50 (HL-60): 8.59 µM (inactive) | GI50 (COLO 205): 17.3 µM (inactive) | GI50 (OVCAR-3): 17.2 µM (inactive) | GI50 (NCI/ADR-RES): 18.4 µM (inactive) | GI50 (ACHN): 15.5 µM (inactive) | GI50 (SN12C): 16.4 µM (inactive) | GI50 (SK-MEL-28): 15 µM (inactive) | GI50 (SR): 13.1 µM (inactive) | GI50 (M14): 13.2 µM (inactive) | GI50 (IGROV-1): 19.8 µM (inactive) | GI50 (MOLT-4): 14.5 µM (inactive) | GI50 (KM12): 14.9 µM (inactive)
